This note sets out measurements from patent US12269827B1, “Substituted pyrazino[1′,2′:1,5]pyrazolo[4,3-c][1,6]naphthyridines as CK2 inhibitors” (KING FAISAL UNIVERSITY, priority 2023, dated 2025).

In one experiment the test system is MIAPaCa-2 (pancreas). The experiment in a line: In vitro cytotoxic activity MTT assay, MIAPaCa-2. The class given is cell-based. The conditions noted are these: Homo sapiens, MIA PaCa-2; MIAPaCa-2 (pancreas) cells, exposed for 96 hours; read-out: Cytotoxicity activity IC50 (50% inhibition of cell proliferation). On the procedure: (§1) Compounds 1-16 were screened for their in vitro cytotoxic activity utilizing a 3-(4,5-dimethyl-thiazol-2-yl)-2,5-diphenyltetrazolium bromide (MTT) assay against selected cancer human cell lines consisting of PC3 (prostate), HCT116 (colon), A375 (melanoma), H1299 (lung), MIAPaCa-2 (pancreas), HL60 (leukemia), MCF7 (breast), MDA-MB-231 (breast) (T. Mosmann, J. Immunol. Meth., 1983, 65, 55-63). The cells were cultured at 37° C. in RMPI1640 medium supplemented with 10% fetal bovine serum, 50 IU/mL penicillin, and 50 µg/mL streptomycin in a 5% CO2 incubator. All cells were sub-cultured 3 times/week by trypsinisation. Viable cells were seeded and allowed to adhere for 12 hours before a test drug was added in 96-well plates at an initial density of 1.0×10^5 cells/mL. Tumor cell lines were separately exposed to various concentrations of the tested compounds followed by incubation at a temperature of 37° C. during 96 hours inside a medium of fresh RMPI 1640. Cells were subsequently incubated at 37° C. using MTT at 0.5 mg/mL during 4 hours. After removal of supernatant, formazan crystals were dissolved in isopropanol and the optical density was measured at 570 nm. CX-4945 was used as a positive control.

A further experiment concerns MDA-MB-231 (breast). The experiment in a line: In vitro cytotoxic activity MTT assay, MDA-MB-231. The class given is cell-based. The conditions noted are these: Homo sapiens; MDA-MB-231 (breast) cells, exposed for 96 hours; read-out: Cytotoxicity activity IC50 (50% inhibition of cell proliferation). On the procedure: as §1
In experiment [1] the target is T1, recombinant human CK2 (RRββ-holoenzyme) (Homo sapiens, UniProt P68400).
T1 construct: purchased Millipore
The experiment in a line: CK2 Kinase Assay (33P-ATP, substrate peptide RRRDDDSDDD). It counts as biochemical. The conditions noted are these: final ATP concentration 15 μM, 10 minutes at 30° C.; read-out: protein kinase CK2 IC50. As to the method:
CK2 Kinase Assay was conducted using the protocol as described in Pierre F. et al; J. Med. Chem. 2011, 54, 635-654. The tested compounds in aqueous solution were added at a volume of 10 μL to a reaction mixture comprising 10 μL of assay dilution buffer (ADB; 20 mM MOPS, pH 7.2, 25 mM β-glycerol phosphate, 5 mM EGTA, 1 mM sodium orthovanadate, and 1 mM dithiothreitol), 10 μL of substrate peptide (RRRDDDSDDD, dissolved in ADB at a concentration of 1 mM), 10 μL of recombinant human CK2 (RRββ-holoenzyme, 25 ng dissolved in ADB; Millipore). Reactions were initiated by the addition of 10 μL of ATP solution (90% 75 mMMgCl2, 75 μM ATP (final ATP concentration:15 μM) dissolved in ADB; 10% [γ-33P] ATP (stock 1 mCi/100 μL; 3000 Ci/mmol (Perkin-Elmer) and maintained for 10 minutes at 30° C. The reactions were quenched with 100 μL of 0.75% phosphoric acid and then transferred to and filtered through a phosphor cellulose filter plate (Millipore). After washing each well five times with 0.75% phosphoric acid, the plate was dried under vacuum for 5 min and, following the addition of 15 μL of scintillation fluid to each well, the residual radioactivity was measured using a Wallac […]. The IC50 values were derived from eight concentrations of test inhibitors.

Another experiment concerns HCT116 (colon). The experiment in a line: In vitro cytotoxic activity MTT assay, HCT116. It counts as cell-based. The note with it: Homo sapiens, HCT-116; HCT116 (colon) cells, exposed for 96 hours; read-out: Cytotoxicity activity IC50 (50% inhibition of cell proliferation). On the procedure:
as §1

The test system of another experiment is MCF7 (breast). The experiment in a line: In vitro cytotoxic activity MTT assay, MCF7. The note with it: Homo sapiens; MCF7 (breast) cells, exposed for 96 hours; read-out: Cytotoxicity activity IC50 (50% inhibition of cell proliferation). The class given is cell-based. As to the method: as §1
A further experiment relates to HL60 (leukemia). The experiment in a line: In vitro cytotoxic activity MTT assay, HL60. It counts as cell-based. The conditions noted are these: Homo sapiens, HL-60; HL60 (leukemia) cells, exposed for 96 hours; read-out: Cytotoxicity activity IC50 (50% inhibition of cell proliferation). On the procedure:
as §1

The next experiment concerns H1299 (lung). The experiment in a line: In vitro cytotoxic activity MTT assay, H1299. The note with it: Homo sapiens, NCI-H1299; H1299 (lung) cells, exposed for 96 hours; read-out: Cytotoxicity activity IC50 (50% inhibition of cell proliferation). The class given is cell-based. On the procedure: as §1
The subject of another experiment is PC3 (prostate). Briefly: In vitro cytotoxic activity MTT assay, PC3. The note with it: Homo sapiens, Prostate cell; PC3 (prostate) cells, exposed for 96 hours; read-out: Cytotoxicity activity IC50 (50% inhibition of cell proliferation). The class given is cell-based. As to the method:
as §1

A further experiment relates to A375 (melanoma). The experiment in a line: In vitro cytotoxic activity MTT assay, A375. The note with it: Homo sapiens, A-375; A375 (melanoma) cells, exposed for 96 hours; read-out: Cytotoxicity activity IC50 (50% inhibition of cell proliferation). It counts as cell-based. On the procedure:
as §1

T1 sequence (P68400 whole entry): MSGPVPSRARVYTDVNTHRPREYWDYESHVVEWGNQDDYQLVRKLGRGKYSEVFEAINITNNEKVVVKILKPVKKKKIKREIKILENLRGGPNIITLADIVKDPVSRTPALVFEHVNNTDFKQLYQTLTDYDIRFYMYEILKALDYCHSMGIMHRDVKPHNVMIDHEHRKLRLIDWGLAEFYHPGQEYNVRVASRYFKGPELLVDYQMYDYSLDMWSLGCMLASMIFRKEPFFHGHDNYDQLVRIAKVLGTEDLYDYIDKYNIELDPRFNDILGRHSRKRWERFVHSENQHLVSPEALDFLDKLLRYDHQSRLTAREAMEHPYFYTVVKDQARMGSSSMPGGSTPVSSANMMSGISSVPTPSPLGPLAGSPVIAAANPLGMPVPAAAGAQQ
T1 sequence (P67870 whole entry partner): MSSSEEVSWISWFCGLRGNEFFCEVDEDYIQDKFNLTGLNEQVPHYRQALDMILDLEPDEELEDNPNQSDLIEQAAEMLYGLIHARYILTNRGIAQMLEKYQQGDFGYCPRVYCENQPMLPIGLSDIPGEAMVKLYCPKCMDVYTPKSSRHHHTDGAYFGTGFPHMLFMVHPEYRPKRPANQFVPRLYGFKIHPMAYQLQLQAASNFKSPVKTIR

For `Clc1cccc(Nc2nc3ccncc3c3nn4ccncc4c23)c1` [Compound 1, N-(3-chlorophenyl)pyrazino[1′,2′:1,5]pyrazolo[4,3-c][1,6]naphthyridin-6-amine], the IC50 in the experiment with MIAPaCa-2 (pancreas) turned out to be 1200 nM; in the experiment on MDA-MB-231 (breast), 4600 nM; in experiment [1], 38 nM; with HCT116 (colon) it was 1800 nM; with MCF7 (breast), 5700 nM; with HL60 (leukemia), 4400 nM. In addition, the IC50 in the experiment on H1299 (lung) was found to be 1500 nM; with PC3 (prostate), 1300 nM; in the experiment with A375 (melanoma), 3700 nM.
